Laboratory results: ChEMBL document CHEMBL1134204, “Carbonic anhydrase inhibitors: synthesis of sulfonamides incorporating dtpa tails and of their zinc complexes with powerful topical antiglaucoma properties” (Bioorg Med Chem Lett, 2001)

Experiments:
Carbonic anhydrase 4 = Carbonic anhydrase 4 (Homo sapiens, UniProt P22748)
Carbonic anhydrase 1 = Carbonic anhydrase 1 (Homo sapiens, UniProt P00915)
Sequence of Carbonic anhydrase 1 (P00915 whole entry): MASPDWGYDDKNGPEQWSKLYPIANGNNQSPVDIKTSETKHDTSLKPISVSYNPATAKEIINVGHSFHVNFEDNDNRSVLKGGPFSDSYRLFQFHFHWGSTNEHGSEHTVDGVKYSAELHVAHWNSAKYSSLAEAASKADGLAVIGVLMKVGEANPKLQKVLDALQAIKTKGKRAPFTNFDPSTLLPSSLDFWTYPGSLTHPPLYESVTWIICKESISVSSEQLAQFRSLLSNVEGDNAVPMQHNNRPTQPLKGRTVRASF

Sequence of Carbonic anhydrase 4 (P22748 whole entry): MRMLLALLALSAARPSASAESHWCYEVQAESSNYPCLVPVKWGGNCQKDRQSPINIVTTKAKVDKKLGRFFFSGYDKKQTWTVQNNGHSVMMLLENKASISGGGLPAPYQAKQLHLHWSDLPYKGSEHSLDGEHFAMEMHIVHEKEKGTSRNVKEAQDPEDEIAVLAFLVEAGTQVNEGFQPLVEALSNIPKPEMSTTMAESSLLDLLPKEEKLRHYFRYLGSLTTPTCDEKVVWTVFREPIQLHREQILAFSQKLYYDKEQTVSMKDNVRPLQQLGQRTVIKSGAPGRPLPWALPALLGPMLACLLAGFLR

SMILES | Ki (Carbonic anhydrase 4) [nM] | Ki (Carbonic anhydrase 1) [nM]
NCCC(=O)Nc1nnc(S(N)(=O)=O)s1 | 125 | 
NS(=O)(=O)c1ccc(NC(=O)CN(CCN(CCN(CC(=O)O)CC(=O)Nc2ccc(S(N)(=O)=O)cc2)CC(=O)O)CC(=O)O)cc1 | 100 | 
NS(=O)(=O)c1ccc(NNC(=O)CN(CCN(CCN(CC(=O)O)CC(=O)NNc2ccc(S(N)(=O)=O)cc2)CC(=O)O)CC(=O)O)cc1 | 430 | 9800
Nc1ccc(S(N)(=O)=O)cc1I | 125 | 
Nc1c(S(N)(=O)=O)cc(S(N)(=O)=O)c(Cl)c1Cl | 175 | 
NS(=O)(=O)c1ccc(CNC(=O)CN(CCN(CCN(CC(=O)O)CC(=O)NCc2ccc(S(N)(=O)=O)cc2)CC(=O)O)CC(=O)O)cc1 [listing 2 of 2 here] | 37 | 
NS(=O)(=O)c1ccc(CCNC(=O)CN(CCN(CCN(CC(=O)O)CC(=O)NCCc2ccc(S(N)(=O)=O)cc2)CC(=O)O)CC(=O)O)cc1 [listing 2 of 2 here] | 25 | 
NS(=O)(=O)c1cccc(NC(=O)CN(CCN(CCN(CC(=O)O)CC(=O)Nc2cccc(S(N)(=O)=O)c2)CC(=O)O)CC(=O)O)c1 | 425 | 
NS(=O)(=O)c1ccccc1NC(=O)CN(CCN(CCN(CC(=O)O)CC(=O)O)CC(=O)O)CC(=O)O | 550 | 8600
NS(=O)(=O)c1ccc(NC(=O)CN(CCN(CCN(CC(=O)O)CC(=O)Nc2ccc(S(N)(=O)=O)cc2I)CC(=O)O)CC(=O)O)c(I)c1 | 24 | 70
NS(=O)(=O)c1ccc(CCNC(=O)CN(CCN(CCN(CC(=O)O)CC(=O)O)CC(=O)O)CC(=O)O)cc1 | 36 | 290
NS(=O)(=O)c1cc(S(N)(=O)=O)c(NC(=O)CN(CCN(CCN(CC(=O)O)CC(=O)Nc2c(S(N)(=O)=O)cc(S(N)(=O)=O)c(Cl)c2Cl)CC(=O)O)CC(=O)O)c(Cl)c1Cl | 25 | 43
NS(=O)(=O)c1ccc(NC(=O)CN(CCN(CCN(CC(=O)O)CC(=O)O)CC(=O)O)CC(=O)O)c(F)c1 | 29 | 180
NS(=O)(=O)c1ccc(NC(=O)CN(CCN(CCN(CC(=O)O)CC(=O)O)CC(=O)O)CC(=O)O)c(I)c1 | 29 | 79
NS(=O)(=O)c1ccc(NC(=O)CN(CCN(CCN(CC(=O)O)CC(=O)O)CC(=O)O)CC(=O)O)c(Br)c1 | 27 | 96
NS(=O)(=O)c1ccc(COC(=O)CN(CCN(CCN(CC(=O)O)CC(=O)O)CC(=O)O)CC(=O)O)cc1 | 265 | 510
Nc1ccccc1S(N)(=O)=O | 1310 | 
Nc1ccc(S(N)(=O)=O)cc1Br | 66 | 
NS(=O)(=O)c1ccc(CCO)cc1 | 450 | 
Nc1ccc(S(N)(=O)=O)cc1F | 180 | 
NNc1ccc(S(N)(=O)=O)cc1 | 3200 | 
Nc1ccc(S(N)(=O)=O)cc1 [SULFANILAMIDE] | 3000 | 

The next compounds have a lower Ki (Carbonic anhydrase 4) than those just listed; values first:

Ki (Carbonic anhydrase 4) [nM] | Ki (Carbonic anhydrase 1) [nM] | SMILES
9 | 54 | Cn1nc(S(N)(=O)=O)s/c1=N\C(=O)CN(CCN(CCN(CC(=O)O)CC(=O)/N=c1/sc(S(N)(=O)=O)nn1C)CC(=O)O)CC(=O)O
16 |  | NS(=O)(=O)c1ccc(CCNC(=O)CN(CCN(CCN(CC(=O)O)CC(=O)NCCc2ccc(S(N)(=O)=O)cc2)CC(=O)O)CC(=O)O)cc1 [listing 1 of 2 here]
21 |  | NS(=O)(=O)c1ccc(CNC(=O)CN(CCN(CCN(CC(=O)O)CC(=O)NCc2ccc(S(N)(=O)=O)cc2)CC(=O)O)CC(=O)O)cc1 [listing 1 of 2 here]
8 | 102 | NS(=O)(=O)c1nnc(NC(=O)CCNC(=O)CN(CCN(CCN(CC(=O)O)CC(=O)NCCC(=O)Nc2nnc(S(N)(=O)=O)s2)CC(=O)O)CC(=O)O)s1
6 | 25 | NS(=O)(=O)c1nc2ccc(NC(=O)CN(CCN(CCN(CC(=O)O)CC(=O)Nc3ccc4nc(S(N)(=O)=O)sc4c3)CC(=O)O)CC(=O)O)cc2s1
15 |  | NS(=O)(=O)c1nc2ccc(OCCO)cc2s1
19 | 62 | Cn1nc(S(N)(=O)=O)s/c1=N/C(=O)CN(CCN(CCN(CC(=O)O)CC(=O)O)CC(=O)O)CC(=O)O
6 | 32 | NS(=O)(=O)c1nc2ccc(OC(=O)CN(CCN(CCN(CC(=O)O)CC(=O)O)CC(=O)O)CC(=O)O)cc2s1
19 |  | Nc1ccc2nc(S(N)(=O)=O)sc2c1
